16 molecules from patent US10851073B2, “Protein tyrosine phosphatase inhibitors and methods of use thereof” (Calico Life Sciences LLC, priority 2019, dated 2020) can be followed below.

Where two headings read alike, the source gives them in different places.

The target of assay [1] is T1, His tagged PTPN2 (TC45) protein (Homo sapiens, UniProt P17706).
T1 construct: made in house
T1 sequence (P17706 with tags, fused parts or gaps isoform P17706-2): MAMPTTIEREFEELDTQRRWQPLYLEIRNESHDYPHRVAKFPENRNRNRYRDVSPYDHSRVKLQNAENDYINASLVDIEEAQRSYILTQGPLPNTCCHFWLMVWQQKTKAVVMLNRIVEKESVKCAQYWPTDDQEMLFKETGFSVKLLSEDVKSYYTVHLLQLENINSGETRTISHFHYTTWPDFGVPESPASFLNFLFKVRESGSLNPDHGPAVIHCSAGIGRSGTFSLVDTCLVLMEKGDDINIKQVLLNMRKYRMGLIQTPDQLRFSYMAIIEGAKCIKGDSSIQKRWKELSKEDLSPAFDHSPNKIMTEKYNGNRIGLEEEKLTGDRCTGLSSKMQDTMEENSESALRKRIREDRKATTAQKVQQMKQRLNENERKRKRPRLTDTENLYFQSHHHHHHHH
The experiment in a line: Mobility shift assay used to determine potency of PTPN2 inhibitors. In kind it is biochemical. The conditions noted are these: enzyme 0.5 nM, substrate 2 μM; read-out: PTPN2 MSA IC50. The procedure:
Example 227: Mobility Shift Assay Used to Determine Potency of PTPN2 Inhibitors
Compound activity was determined using in house His tagged PTPN2 (TC45) protein (SEQ ID NO: 1) in an in vitro enzymatic reaction. The enzymatic assay used to determine activity was a mobility shift assay using a LabChip EZ Reader by Caliper Life Sciences. The enzymatic reaction was carried out in assay buffer (50 mM HEPES pH 7.5, 1 mM EGTA, 10 mM EDTA, 0.01% Tween® 20, and 2 mM DTT). The compounds were dispensed on a white 384 well ProxiPlate™ (PerkinElmer Catalog #6008289) plate using the Labcyte Echo at varying concentrations (12 point, 1:3 dilution). The enzyme (at 0.5 nM) was incubated with compound for 10 minutes at room temperature. Then the substrate (phosphorylated insulin receptor probe sequence: ((OG488)-(NH—CH2—CH2—O—CH2—CH2—O—CH2—CO)-T-R-D-I-(PY)-E-T-D-Y-Y-R-K-K-NH2) (SEQ ID NO: 2) was added at 2 μM to the plates and incubated for another 10 minutes at room temperature. Finally, a quench solution (water and 4-bromo-3-(2-oxo-2-propoxyethoxy)-5-(3-{[1-(phenylmethanesulfonyl)piperidin-4-yl]amino}phenyl)thiophene-2-carboxylic acid) was added to the plates, which were then run on the EZ Reader (excitation 488 nm, emission 530 nm) to measure % conversion (the amount of phosphorylated substrate which was de-phosphorylated by PTPN2). […] The % inhibition was then used to calculate the IC50 values.

Assay [2] deals with T2, His tagged full-length PTPN1 protein (Homo sapiens, UniProt P18031).
T2 construct: made in house
T2 sequence (P18031 with tags, fused parts or gaps): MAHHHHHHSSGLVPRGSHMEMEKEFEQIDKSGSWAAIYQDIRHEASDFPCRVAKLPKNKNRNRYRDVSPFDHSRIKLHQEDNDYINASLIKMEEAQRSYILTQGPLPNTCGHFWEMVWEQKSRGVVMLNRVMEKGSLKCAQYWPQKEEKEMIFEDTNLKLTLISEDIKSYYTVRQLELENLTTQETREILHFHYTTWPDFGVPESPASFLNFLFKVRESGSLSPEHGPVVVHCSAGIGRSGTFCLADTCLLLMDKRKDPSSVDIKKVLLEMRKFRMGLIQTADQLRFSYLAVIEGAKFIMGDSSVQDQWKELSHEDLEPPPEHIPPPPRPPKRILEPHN
The experiment in a line: Mobility shift assay (MSA) used to determine potency of PTPN1 inhibitors. It counts as biochemical. The conditions noted are these: enzyme 0.5 nM, substrate 2 μM. The procedure:
Example 228: Mobility Shift Assay (MSA) Used to Determine Potency of PTPN1 Inhibitors
Compound activity was determined using in house His tagged full-length PTPN1 protein (SEQ ID NO: 3) in an in vitro enzymatic reaction. The enzymatic assay used to determine activity is a mobility shift assay using a LabChip EZ Reader by Caliper Life Sciences. The enzymatic reaction was carried out in assay buffer (50 mM HEPES pH 7.5, 1 mM EGTA, 10 mM EDTA, 0.01% Tween® 20, and 2 mM DTT). The compounds were dispensed on a white 384 well ProxiPlate™ (PerkinElmer Cat^# 6008289) plate using a Labcyte Echo® liquid handler at varying concentrations (12 point, 1:3 dilution). The enzyme (at 0.5 nM) was incubated with compound for 10 minutes at room temperature. Then the substrate (phosphorylated insulin receptor probe sequence: ((OG488)-(NH—CH2—CH2—O—CH2—CH2—O—CH2—CO)-T-R-D-I-(PY)-E-T-D-Y-Y-R-K-K-NH2) (SEQ ID NO: 2) was added at 2 μM to the plates and incubated for another 10 minutes at room temperature. Finally, a quench solution (water and 4-bromo-3-(2-oxo-2-propoxyethoxy)-5-(3-{[1-(phenylmethanesulfonyl)piperidin-4-yl]amino}phenyl)thiophene-2-carboxylic acid) was added to the plates, which were then run on the EZ Reader (excitation 488 nm, emission 530 nm) to measure % conversion (the amount of phosphorylated substrate which was de-phosphorylated by PTPN1). […] The % inhibition was then used to calculate the IC50 values.

Assay [3] deals with B16F10 mouse melanoma cells. The experiment in a line: B16F10 IFNγ-induced cellular growth inhibition assay. In kind it is cell-based. To be noted: B16-F10, with 0.5 ng/mL IFNγ. How it is done: Example 229: B16F10 IFNγ-Induced Cellular Growth Inhibition Assay B16F10 mouse melanoma cells (ATCC Cat^# CRL-6475, Manassas, Va.) were seeded at a density of 500 cells per well in a 384-well clear bottom plate (Corning Cat^#3765, Corning, N.Y.) in 25 μL total volume of DMEM+10% FBS (Sigma Cat^# D6429 and Sigma Cat^# F4135, St. Louis, Mo.). Cells were allowed to adhere overnight at 37° C.+5% CO2. On the following day, 12.5 μL of mouse IFNγ (RD systems Cat^#485-MI/CF, Minneapolis, Minn.) was added to half of the plate (columns 13-24) at a concentration of 2 ng/mL for a final assay concentration of 0.5 ng/mL of IFNγ. Media only (12.5 μL of DMEM+10% FBS) was added to the remainder of the plate (columns 1-12). Next, compounds resuspended in DMSO (Sigma Cat^# D2650) at 100 mM were diluted in semi-log dilutions in DMSO ranging from 100 mM to 0.001 mM and DMSO only controls were included. The compound/DMSO dilutions were further diluted 1:250 in DMEM+10% FBS, and 12.5 μL of these dilutions were added in triplicates to cells of both treatment arms (with and without IFNγ). Final compound concentrations ranged from 100 μM to 0.001 μM with a final DMSO concentration of 0.1%. Compounds were only dosed in the inner 240 wells, avoiding the outer 2-well perimeter of the plate to minim/ze edge effects. Finally, the plate was loaded into an IncuCyte® S3 Live Cell Analysis System (Essen Bioscience-Sartorius, Ann Arbor, Mich.) maintained in a 37° C.+5% CO2 incubator, allowed to equilibrate for 2 hours, and imaged every 6 hours for 5 days. Confluence over time for compound dilutions in the presence and absence of IFNγ was measured. Growth inhibition values were obtained when the “DMSO/no IFNγ” control reached confluence >95%. At these time points, for each compound the percent growth inhibition at every compound dose level was calculated relative to the “DMSO/with IFNγ” control and used to determine the IC50.

[4] abbreviates: read-out: B16F10 Growth Inhibition IC50.

The term IC50 denotes the concentration at which inhibition is half-maximal. In the case of `O=C1CN(c2c(O)cc3c(c2F)CC(C2CCN(CC4CC4)C2)CC3)S(=O)(=O)N1` (mixture of isomers) [Compound 140, 5-{7-[1-(cyclopropylmethyl)pyrrolidin-3-yl]-1-fluoro-3-hydroxy-5,6,7,8-tetrahydronaphthalen-2-yl}-1λ^6,2,5-thiadiazolidine-1,1,3-trione], the IC50 in assay [1] and in assay [2] was 10 to 100 nM each time.
For the molecule `O=C1CN(c2c(O)cc3c(c2F)CN(C[C@H]2C[C@@H]2c2ccncc2)CC3)S(=O)(=O)N1` (racemic) [Compound 248, 5-(8-fluoro-6-hydroxy-2-{[rac-(1R,2R)-2-(pyridin-4-yl)cyclopropyl]methyl}-1,2,3,4-tetrahydroisoquinolin-7-yl)-1λ^6,2,5-thiadiazolidine-1,1,3-trione], the IC50 in assay [1] and in assay [2] was 10 to 100 nM in each case.
In the case of `O=C1CN(c2c(O)cc3c(c2F)CC(NCC2CC2)CC3)S(=O)(=O)N1` (centres unmarked) [Compound 103, 5-{7-[(cyclopropylmethyl)amino]-1-fluoro-3-hydroxy-5,6,7,8-tetrahydronaphthalen-2-yl}-1λ^6,2,5-thiadiazolidine-1,1,3-trione], the IC50 in assay [3] (read-out: B16F10 GI IC50) lay in the range of 1000 to 10000 nM; in assay [1], 10 to 100 nM.
In the case of `COC(CCNC1CCc2cc(O)c(N3CC(=O)NS3(=O)=O)c(F)c2C1)C(F)(F)F` (centres unmarked) [Compound 152, 5-{1-fluoro-3-hydroxy-7-[(4,4,4-trifluoro-3-methoxybutyl)amino]-5,6,7,8-tetrahydronaphthalen-2-yl}-1λ^6,2,5-thiadiazolidine-1,1,3-trione], the IC50 in assay [1] is 1 to 10 nM.
On to `O=C1CN(c2c(O)cc3c(c2F)CC(NCCOC(F)(F)F)CC3)S(=O)(=O)N1` (centres unmarked) [Compound 169, 5-(1-fluoro-3-hydroxy-7-{[2-(trifluoromethoxy)ethyl]amino}-5,6,7,8-tetrahydronaphthalen-2-yl)-1λ^6,2,5-thiadiazolidine-1,1,3-trione], for which the IC50 in assay [3] (read-out: B16F10 GI IC50) was 10000 to 100000 nM; in assay [1] it was 10 to 100 nM.
`O=C1CN(c2c(O)cc3c(c2F)CN(C(=O)NCC2CC(F)(F)C2)CC3)S(=O)(=O)N1` [Compound 262, N-[(3,3-difluorocyclobutyl)methyl]-8-fluoro-6-hydroxy-7-(1,1,4-trioxo-1λ^6,2,5-thiadiazolidin-2-yl)-3,4-dihydroisoquinoline-2(1H)-carboxamide]: the IC50 in assay [3] (read-out: B16F10 GI IC50) lay in the range of 10000 to 100000 nM.
For the molecule `O=C1CN(c2c(O)cc3c(c2F)CN(C(=O)NCC2CCCO2)CC3)S(=O)(=O)N1` (centres unmarked) [Compound 263, 8-fluoro-6-hydroxy-N-[(oxolan-2-yl)methyl]-7-(1,1,4-trioxo-1λ^6,2,5-thiadiazolidin-2-yl)-3,4-dihydroisoquinoline-2(1H)-carboxamide], the IC50 in assay [1] lay in the range of 10 to 100 nM.
For the molecule `NCC1Cc2cc(O)c(N3CC(=O)NS3(=O)=O)c(F)c2C1` (centres unmarked) [Compound 267, 5-[2-(aminomethyl)-4-fluoro-6-hydroxy-2,3-dihydro-1H-inden-5-yl]-1λ^6,2,5-thiadiazolidine-1,1,3-trione 2,2,2-trifluoroacetate], the IC50 in assay [1] lay within 10 to 100 nM.
On to `CCn1nc(C)c(CCN2CCc3cc(O)c(N4CC(=O)NS4(=O)=O)c(F)c3C2)c1C` [Compound 276, 5-{2-[2-(1-ethyl-3,5-dimethyl-1H-pyrazol-4-yl)ethyl]-8-fluoro-6-hydroxy-1,2,3,4-tetrahydroisoquinolin-7-yl}-1λ^6,2,5-thiadiazolidine-1,1,3-trione], for which, in assay [3] (read-out: B16F10 GI IC50), the IC50 was 1000 to 10000 nM.
On to `O=C1CN(c2c(O)cc3c(c2F)CN(CCCC2CCCCC2)CC3)S(=O)(=O)N1` [Compound 286, 5-[2-(3-cyclohexylpropyl)-8-fluoro-6-hydroxy-1,2,3,4-tetrahydroisoquinolin-7-yl]-1λ^6,2,5-thiadiazolidine-1,1,3-trione], for which the IC50 in assay [3] (read-out: B16F10 GI IC50) lay in the range of 1000 to 10000 nM.
As for `COCCCCN1CCc2cc(O)c(N3CC(=O)NS3(=O)=O)c(F)c2C1` [Compound 293, 5-[8-fluoro-6-hydroxy-2-(4-methoxybutyl)-1,2,3,4-tetrahydroisoquinolin-7-yl]-1λ^6,2,5-thiadiazolidine-1,1,3-trione], the IC50 in assay [3] (read-out: B16F10 GI IC50) was in the range of 1000 to 10000 nM.
For the molecule `Cc1noc(C)c1CCN1Cc2c(cc(O)c(N3CC(=O)NS3(=O)=O)c2F)C(F)(F)C1` [Compound 306, 5-{2-[2-(3,5-dimethyl-1,2-oxazol-4-yl)ethyl]-4,4,8-trifluoro-6-hydroxy-1,2,3,4-tetrahydroisoquinolin-7-yl}-1λ^6,2,5-thiadiazolidine-1,1,3-trione], in assay [3] (read-out: B16F10 GI IC50), the IC50 was over 100000 nM.
Turning to `CC(C)CCCC1CCc2cc(O)c(N3CC(=O)NS3(=O)=O)c(F)c2C1` (centres unmarked) [Compound 323, 5-[1-fluoro-3-hydroxy-7-(4-methylpentyl)-5,6,7,8-tetrahydronaphthalen-2-yl]-1λ^6,2,5-thiadiazolidine-1,1,3-trione], the IC50 in assay [1] is 1 to 10 nM.
Regarding `CC(C)CCNc1ccc2cc(O)c(N3CC(=O)NS3(=O)=O)c(F)c2c1` [Compound V], the IC50 in assay [3] (setting [4]) stood at 3200 nM.
For the molecule `CC(C)(C)CCNc1ccc2cc(O)c(N3CC(=O)NS3(=O)=O)c(F)c2c1` [Compound W], the half-maximal inhibitory concentration (IC50) in assay [3] (setting [4]) was determined as 4100 nM.
Still for that read-out and setting: in the case of `O=C1CN(c2c(O)cc3ccc(NCCC4CC4)cc3c2F)S(=O)(=O)N1` [Compound X] it was 4100 nM.
